The test addresses T1, human PPAR α (Homo sapiens, UniProt Q07869).
T1 construct: expressed in transfected cells; host or cells: HepG2 (ATCC HB-8065) or 293T cells (ATCC CRL-1573)
T1 sequence (Q07869 239-466 limits assumed): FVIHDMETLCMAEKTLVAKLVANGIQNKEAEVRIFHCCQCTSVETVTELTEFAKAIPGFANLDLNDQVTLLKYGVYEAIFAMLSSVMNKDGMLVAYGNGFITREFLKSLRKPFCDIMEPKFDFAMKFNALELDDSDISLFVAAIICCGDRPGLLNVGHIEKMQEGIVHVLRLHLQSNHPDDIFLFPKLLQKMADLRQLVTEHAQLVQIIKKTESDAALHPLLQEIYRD
The experiment in a line: Exogeneous PPAR α agonist assay (GAL4 DNA binding domain/PPAR α ligand binding domain, luciferase) in 293T cells. The format is cell-based. Details: scale not given here. As to conditions: 25 μM compound, 48 hours, luciferase activity increase relative to the control. How it is done: Step 1) Exogeneous PPAR α Agonist Assay
Cross-activation assay of the compounds of Examples 1 to 134 against human PPAR α was carried out using a DNA construct of PPAR α including its ligand binding domain and GAL4 DNA binding domain (Sher et al., Biochemistry 32, 5598-5604, 1993) to analyze whether any of the compounds binds to the ligand binding domain of PPAR α expressed by the construct to affect the PPAR α activity. When the GAL4 DNA binding domainm which is fused with PPAR α ligand binding domain, binds to UAS (upstream activation sequence) of firefly-luciferase, the luciferase is expressed. Therefore, the effect of each of the compounds of Examples on PPAR α activation can be evaluated by analyzing the activation of luciferase.
Specifically, 2×10^4 of HepG2 (ATCC HB-8065) or 293T cells (ATCC CRL-1573) were aliquotted into each well of a 96-well plate and cultured for overnight at 37° C. in a CO2 incubator (culture condition: DMEM, 10% FBS and 1% antibiotics).
The transformation of PPAR α DNA was traced as follows. First, a mixture of the following ingredients in amounts per well; Solution A (Promega) containing 50 ng of full length human PPAR α DNA, 50 ng of firefly-luciferase construct, 5 ng of Renilla-luciferase construct, 1.0 μl of PLUS™ reagent, and 8.3 μl of a serum-free medium containing no antibiotics; was prepared and kept at room temperature for 15 min. Solution B, which contained 0.5 μl of Lipofectamine™ reagent and 9.5 μl of serum-free medium without antibiotics per well, and Solution C, which contained 50 μl of serum-free medium per well), were prepared. Solutions A, B and C were mixed together to prepare lipofectamin-DNA complex, and the mixture was kept at room temperature for 15 min. Single layer of cells on each well of a 96-well plate were washed with serum-free DMEM, 70 μl of lipofectamine-DNA complex prepared above was added thereto, the plate was incubated at 37° C. in a 5% CO2 incubator for 3 hours to transform the cells, and […] of a diluted solution of each of the compounds of Examples 1 to 134 per well was added to each well to a final concentration 25 μM, and incubated at 37° C. in a CO2 incubator for 48 hours. Then, the medium was removed, 50 μl of passive lysis buffer (Promega) was added thereto, and the plate was shook at room temperature for 20 min to lysis cells. 40 μl of Luciferase Assay reagent of Dual Luciferase Kit […] per 20 μl of cell lysis buffer was added to the plate, followed by reacting at 20° C. for 8 seconds, and 40 μl of Stop & Glo reagent (Promega) as a stop solution was added thereto to quench the reaction. The luminescence intensities of F-luciferase and R-luciferase were measured with MicroLumat Plus (Berthord Technology).

The source of these data is patent publication US20070254882A1, “Sulfamide Derivatives and Pharmaceutical Composition for Upregulation of Lipid Metabolism Comprising Same” (CRYSTAL GENOMICS, INC., priority 2004, published 2007).

Each structure is given as a SMILES string.

Consider `Cc1oc(-c2cccs2)nc1CCOc1cccc(CN(CC(=O)O)S(=O)(=O)N(C)C)c1` [Example 72, [N—(N,N-dimethylamino)sulfonyl-N-[3-[2-[2-(thiophen-2-yl)-5-methyloxazol-4-yl]ethoxy]benzyl]amino]acetic acid], for which the “Activity at 25 μM Step 1 293T cell” value is on record as 2. Consider `Cc1oc(-c2ccccc2)nc1CCOc1ccc(CN(CC(=O)O)S(=O)(=O)N2CCc3ccccc32)cc1` [Example 116], for which the “Activity at 25 μM Step 1 293T cell” value is 2.

Turning to `Cc1oc(-c2ccc(C(F)(F)F)cc2)nc1CCOc1cccc(CN(CC(=O)O)S(=O)(=O)N2CCCC2)c1` [Example 85, [N-(pyrrolidinyl)sulfonyl-N-[3-[2-[2-(4-trifluoromethylphenyl)-5-methyloxazol-4-yl]ethoxy]benzyl]amino]acetic acid], the “Activity at 25 μM Step 1 293T cell” value came to 1. The result for `Cc1oc(-c2ccccc2)nc1COc1cccc(CN(CC(=O)O)S(=O)(=O)N2CCCc3ccccc32)c1` [Example 34, [N-(1,2,3,4-tetrahydroquinolinyl)sulfonyl-N-[3-[(2-phenyl-5-methyloxazol-4-yl)methoxy]benzyl]amino]acetic acid] reads 2. Then `Cc1nc(-c2ccc(C(F)(F)F)cc2)oc1COc1cccc(CN(CC(=O)O)S(=O)(=O)N(C)C)c1` [Example 13, [N—(N,N-dimethylamino)sulfonyl-N-[3-[[2-(4-trifluoromethylphenyl)-4-methyloxazol-5-yl]methoxy]benzyl]amino]acetic acid], with 2. The result for `Cc1oc(-c2ccc(C(F)(F)F)cc2)nc1COc1cccc(CN(CC(=O)O)S(=O)(=O)N2CCc3ccccc32)c1` [Example 32, [N-(indolinyl)sulfonyl-N-[3-[[2-(4-trifluoromethylphenyl)-5-methyloxazol-4-yl]methoxy]benzyl]amino]acetic acid] reads 2; that for `Cc1oc(-c2ccccc2)nc1CCOc1cccc(CN(CC(=O)O)S(=O)(=O)N(C)C)c1` [Example 61, [N—(N,N-dimethylamino)sulfonyl-N-[3-[2-(2-phenyl-5-methyloxazol-4-yl)ethoxy]benzyl]amino]acetic acid], 2; that for `Cc1ccc(-c2nc(CCOc3ccc(CN(CC(=O)O)S(=O)(=O)NC(C)(C)C)cc3)c(C)o2)cc1` [Example 100, [N—(N-t-butylamino)sulfonyl-N-[4-[2-[2-(4-methylphenyl)-5-methyloxazol-4-yl]ethoxy]benzyl]amino]acetic acid], 2. Consider `Cc1oc(-c2ccccc2)nc1COc1ccc(CN(CC(=O)O)S(=O)(=O)N(C)c2ccc(Cl)cc2)cc1` [Example 49, [N—[[N-methyl-N-(4-chlorophenyl)]amino]sulfonyl-N-[4-[(2-phenyl-5-methyloxazol-4-yl)methoxy]benzyl]amino]acetic acid], for which the “Activity at 25 μM Step 1 293T cell” value was 3. The result for `Cc1ccc(-c2nc(CCOc3ccc(CN(CC(=O)O)S(=O)(=O)N(C)c4ccccc4)cc3)c(C)o2)cc1` [Example 106, [N—[(N-methyl-N-phenyl)amino]sulfonyl-N-[4-[2-[2-(4-methylphenyl)-5-methyloxazol-4-yl]ethoxy]benzyl]amino]acetic acid] reads 2; that for `Cc1ccc(-c2nc(COc3cccc(CN(CC(=O)O)S(=O)(=O)N(C)c4ccccc4)c3)c(C)o2)cc1` [Example 15, [N—[(N-methyl-N-phenyl)amino]sulfonyl-N-[3-[[2-(4-methylphenyl)-5-methyloxazol-4-yl]methoxy]benzyl]amino]acetic acid], 2. The result for `Cc1oc(-c2ccc(C(F)(F)F)cc2)nc1COc1cccc(CN(CC(=O)O)S(=O)(=O)N(C)c2ccc(Cl)cc2)c1` [Example 20, [N—[[N-methyl-N-(4-chlorophenyl)]amino]sulfonyl-N-[3-[[2-(4-trifluoromethylphenyl)-5-methyloxazol-4-yl]methoxy]benzyl]amino]acetic acid] reads 2; that for `Cc1ccc(-c2nc(CCOc3ccc(CN(CC(=O)O)S(=O)(=O)N4CCc5ccccc54)cc3)c(C)o2)cc1` [Example 117, [N-(indolinyl)sulfonyl-N-[4-[2-[2-(4-methylphenyl)-5-methyloxazol-4-yl]ethoxy]benzyl]amino]acetic acid], 3; that for `Cc1oc(-c2ccc(C(F)(F)F)cc2)nc1CCOc1ccc(CN(CC(=O)O)S(=O)(=O)N(C)c2ccc(Cl)cc2)cc1` [Example 114, [N—[[N-methyl-N-(4-chlorophenyl)]amino]sulfonyl-N-[4-[2-[2-(4-trifluoromethylphenyl)-5-methyloxazol-4-yl]ethoxy]benzyl]amino]acetic acid], 2. Consider `Cc1ccc(-c2nc(CCOc3cccc(CN(CC(=O)O)S(=O)(=O)N4CCN(C)CC4)c3)c(C)o2)cc1` [Example 88, [N-(4-methyl-1-piperazinyl)sulfonyl-N-[3-[2-[2-(4-methylphenyl)-5-methyloxazol-4-yl]ethoxy]benzyl]amino]acetic acid], for which the “Activity at 25 μM Step 1 293T cell” value amounted to 1. Then `Cc1oc(-c2ccc(C(F)(F)F)cc2)nc1COc1cccc(CN(CC(=O)O)S(=O)(=O)N2CCN(C)CC2)c1` [Example 27, [N-(4-methyl-1-piperazinyl)sulfonyl-N-[3-[[2-(4-trifluoromethylphenyl)-5-methyloxazol-4-yl]methoxy]benzyl]amino]acetic acid], with 1. The result for `Cc1nc(-c2ccc(C(F)(F)F)cc2)oc1COc1cccc(CN(CC(=O)O)S(=O)(=O)N2CCCC2)c1` [Example 26, [N-(pyrrolidinyl)sulfonyl-N-[3-[[2-(4-trifluoromethylphenyl)-4-methyloxazol-5-yl]methoxy]benzyl]amino]acetic acid] reads 2; that for `Cc1oc(-c2ccc(C(F)(F)F)cc2)nc1CCOc1ccc(CN(CC(=O)O)S(=O)(=O)N(C)C)cc1` [Example 103, [N—(N,N-dimethylamino)sulfonyl-N-[4-[2-[2-(4-trifluoromethylphenyl)-5-methyloxazol-4-yl]ethoxy]benzyl]amino]acetic acid], 2; that for `Cc1oc(-c2ccccc2)nc1CCOc1ccc(CN(CC(=O)O)S(=O)(=O)N(C)C)cc1` [Example 98, [N—(N,N-dimethylamino)sulfonyl-N-[4-[2-(2-phenyl-5-methyloxazol-4-yl)ethoxy]benzyl]amino]acetic acid], 1. Then `Cc1nc(-c2ccc(C(F)(F)F)cc2)oc1COc1cccc(CN(CC(=O)O)S(=O)(=O)N2CCOCC2)c1` [Example 29, [N-(morpholinyl)sulfonyl-N-[3-[[2-(4-trifluoromethylphenyl)-4-methyloxazol-5-yl]methoxy]benzyl]amino]acetic acid], with 2; and `Cc1ccc(-c2nc(COc3ccc(CN(CC(=O)O)S(=O)(=O)N(C)c4ccccc4)cc3)c(C)o2)cc1` [Example 46, [N—[(N-methyl-N-phenyl)amino]sulfonyl-N-[4-[[2-(4-methylphenyl)-5-methyloxazol-4-yl]methoxy]benzyl]amino]acetic acid], with 2. Take `Cc1ccc(-c2nc(COc3ccc(CN(CC(=O)O)S(=O)(=O)N4CCCC4)cc3)c(C)o2)cc1` [Example 42, [N-(pyrrolidinyl)sulfonyl-N-[4-[[2-(4-methylphenyl)-5-methyloxazol-4-yl]methoxy]benzyl]amino]acetic acid]: the “Activity at 25 μM Step 1 293T cell” value was 3. The result for `Cc1oc(-c2ccc(C(F)(F)F)cc2)nc1CCOc1ccc(CN(CC(=O)O)S(=O)(=O)N2CCc3ccccc32)cc1` [Example 118, [N-(indolinyl)sulfonyl-N-[4-[2-[2-(4-trifluoromethylphenyl)-5-methyloxazol-4-yl]ethoxy]benzyl]amino]acetic acid] reads 2.
